From article PMC11480411, “Mucosal sugars delineate pyrazine vs pyrazinone autoinducer signaling in Klebsiella oxytoca” (Nature Communications, 2024)

How the values were obtained:
Assay in all cases: PRESTO-Tango GPCR screen
Type in all cases: cell-based
Details in all cases: 100 µM
ADORA3 = biological target: T1, ADORA3 (Homo sapiens, UniProt P0DMS8)
T1 construct: purchased PRESTO-Tango GPCR kit (Roth lab / Addgene)
Procedure, shortened: (§1)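 In this arrestin-recruitment reporter assay, HEK293-derived HTLA cells expressing a transfected receptor-Tango fusion are treated for 20 h with compound at a final 100 μM. Luciferase output is quantified with Bright-Glo and reported relative to PBS.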

ADRA2B = biological target: T2, ADRA2B (Homo sapiens, UniProt P18089)
T2 construct: purchased PRESTO-Tango GPCR kit (Roth lab / Addgene)
Procedure, shortened: as §1

ADRB2 = biological target: T3, ADRB2 (Homo sapiens, UniProt P07550)
T3 construct: purchased PRESTO-Tango GPCR kit (Roth lab / Addgene)
Procedure, shortened: as §1

C3AR1 = biological target: T4, C3AR1 (Homo sapiens, UniProt Q16581)
T4 construct: purchased PRESTO-Tango GPCR kit (Roth lab / Addgene)
Procedure, shortened: as §1

C5A = biological target: T5, C5A (Homo sapiens, UniProt P21730)
T5 construct: purchased PRESTO-Tango GPCR kit (Roth lab / Addgene)
T5 sequence (P21730 whole entry): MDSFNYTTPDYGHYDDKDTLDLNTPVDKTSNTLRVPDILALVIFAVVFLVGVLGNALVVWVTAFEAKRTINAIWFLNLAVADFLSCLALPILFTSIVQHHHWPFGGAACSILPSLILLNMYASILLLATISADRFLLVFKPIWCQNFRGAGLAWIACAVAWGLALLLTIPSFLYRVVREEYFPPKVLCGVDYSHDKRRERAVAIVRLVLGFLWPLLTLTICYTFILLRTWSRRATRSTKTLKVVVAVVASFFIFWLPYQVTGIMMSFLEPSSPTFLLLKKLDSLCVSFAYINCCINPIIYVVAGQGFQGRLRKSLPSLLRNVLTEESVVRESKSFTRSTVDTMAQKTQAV
Procedure, shortened: as §1

CCR3 = biological target: T6, CCR3 (Homo sapiens, UniProt P51677)
T6 construct: purchased PRESTO-Tango GPCR kit (Roth lab / Addgene)
Procedure, shortened: as §1

CCRL2 = biological target: T7, CCRL2 (Homo sapiens, UniProt O00421)
T7 construct: purchased PRESTO-Tango GPCR kit (Roth lab / Addgene)
Procedure, shortened: as §1

CHRM1 = biological target: T8, CHRM1 (Homo sapiens, UniProt P11229)
T8 construct: purchased PRESTO-Tango GPCR kit (Roth lab / Addgene)
Procedure, shortened: as §1

CHRM4 = biological target: T9, CHRM4 (Homo sapiens, UniProt P08173)
T9 construct: purchased PRESTO-Tango GPCR kit (Roth lab / Addgene)
T9 sequence (P08173 whole entry): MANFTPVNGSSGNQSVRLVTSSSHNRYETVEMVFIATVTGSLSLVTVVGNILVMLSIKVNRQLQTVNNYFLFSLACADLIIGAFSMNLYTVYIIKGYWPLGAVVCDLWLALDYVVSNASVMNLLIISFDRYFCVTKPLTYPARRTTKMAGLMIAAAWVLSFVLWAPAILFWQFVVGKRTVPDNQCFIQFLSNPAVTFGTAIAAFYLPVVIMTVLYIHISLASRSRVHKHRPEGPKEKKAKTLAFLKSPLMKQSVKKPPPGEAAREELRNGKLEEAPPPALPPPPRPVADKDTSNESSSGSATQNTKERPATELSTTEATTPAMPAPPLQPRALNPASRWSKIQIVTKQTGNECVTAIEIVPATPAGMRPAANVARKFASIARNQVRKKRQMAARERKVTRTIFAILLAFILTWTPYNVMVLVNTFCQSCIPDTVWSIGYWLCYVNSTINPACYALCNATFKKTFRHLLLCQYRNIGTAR
Procedure, shortened: as §1

F2R = biological target: T10, F2R (Homo sapiens, UniProt P25116)
T10 construct: purchased PRESTO-Tango GPCR kit (Roth lab / Addgene)
Procedure, shortened: as §1

GPR101 = biological target: T11, GPR101 (Homo sapiens, UniProt Q96P66)
T11 construct: purchased PRESTO-Tango GPCR kit (Roth lab / Addgene)
Procedure, shortened: as §1

GPR12 = biological target: T12, GPR12 (Homo sapiens, UniProt P47775)
T12 construct: purchased PRESTO-Tango GPCR kit (Roth lab / Addgene)
Procedure, shortened: as §1

GPR142 = biological target: T13, GPR142 (Homo sapiens, UniProt Q7Z601)
T13 construct: purchased PRESTO-Tango GPCR kit (Roth lab / Addgene)
T13 sequence (Q7Z601 whole entry): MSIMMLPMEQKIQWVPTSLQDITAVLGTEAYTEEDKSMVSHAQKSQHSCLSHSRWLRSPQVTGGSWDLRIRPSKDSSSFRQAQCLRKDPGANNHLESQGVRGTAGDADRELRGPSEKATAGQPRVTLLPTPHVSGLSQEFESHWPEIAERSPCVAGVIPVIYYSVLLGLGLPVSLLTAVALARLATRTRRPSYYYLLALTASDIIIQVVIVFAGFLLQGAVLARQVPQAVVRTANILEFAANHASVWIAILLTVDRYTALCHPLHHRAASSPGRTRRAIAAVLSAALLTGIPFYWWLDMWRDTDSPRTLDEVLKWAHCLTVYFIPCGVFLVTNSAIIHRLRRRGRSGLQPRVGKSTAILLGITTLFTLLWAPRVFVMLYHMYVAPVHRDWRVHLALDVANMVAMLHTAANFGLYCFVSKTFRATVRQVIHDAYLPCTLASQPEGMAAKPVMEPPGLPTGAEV
Procedure, shortened: as §1

GPR22 = biological target: T14, GPR22 (Homo sapiens, UniProt Q99680)
T14 construct: purchased PRESTO-Tango GPCR kit (Roth lab / Addgene)
Procedure, shortened: as §1

GPR39 = biological target: T15, GPR39 (Homo sapiens, UniProt O43194)
T15 construct: purchased PRESTO-Tango GPCR kit (Roth lab / Addgene)
Procedure, shortened: as §1

GPR52 = biological target: T16, GPR52 (Homo sapiens, UniProt Q9Y2T5)
T16 construct: purchased PRESTO-Tango GPCR kit (Roth lab / Addgene)
T16 sequence (Q9Y2T5 whole entry): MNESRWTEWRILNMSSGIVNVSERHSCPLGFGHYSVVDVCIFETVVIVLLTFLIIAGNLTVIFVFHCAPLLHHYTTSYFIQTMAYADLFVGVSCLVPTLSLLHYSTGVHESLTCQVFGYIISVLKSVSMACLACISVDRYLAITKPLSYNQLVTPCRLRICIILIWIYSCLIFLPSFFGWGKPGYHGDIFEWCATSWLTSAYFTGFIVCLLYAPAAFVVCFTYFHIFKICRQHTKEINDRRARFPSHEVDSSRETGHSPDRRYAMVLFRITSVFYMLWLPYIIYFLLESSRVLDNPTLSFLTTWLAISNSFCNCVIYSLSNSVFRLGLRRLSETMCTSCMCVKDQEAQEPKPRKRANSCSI
Procedure, shortened: as §1

GPR62 = biological target: T17, GPR62 (Homo sapiens, UniProt Q9BZJ7)
T17 construct: purchased PRESTO-Tango GPCR kit (Roth lab / Addgene)
Procedure, shortened: as §1

HTR2C = biological target: T18, HTR2C (Homo sapiens, UniProt P28335)
T18 construct: purchased PRESTO-Tango GPCR kit (Roth lab / Addgene)
Procedure, shortened: as §1

MC5R = biological target: T19, MC5R (Homo sapiens, UniProt P33032)
T19 construct: purchased PRESTO-Tango GPCR kit (Roth lab / Addgene)
T19 sequence (P33032 whole entry): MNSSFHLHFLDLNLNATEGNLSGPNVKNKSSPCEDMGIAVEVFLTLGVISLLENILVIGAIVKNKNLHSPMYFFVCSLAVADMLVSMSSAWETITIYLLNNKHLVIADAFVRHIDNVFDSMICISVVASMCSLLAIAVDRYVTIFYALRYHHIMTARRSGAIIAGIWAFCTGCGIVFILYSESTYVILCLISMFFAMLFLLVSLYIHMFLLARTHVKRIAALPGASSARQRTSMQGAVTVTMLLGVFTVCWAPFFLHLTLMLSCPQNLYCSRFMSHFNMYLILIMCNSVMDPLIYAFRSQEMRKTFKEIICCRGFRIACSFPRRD
Procedure, shortened: as §1

MRGPRE = biological target: T20, MRGPRE (Homo sapiens, UniProt Q86SM8)
T20 construct: purchased PRESTO-Tango GPCR kit (Roth lab / Addgene)
T20 sequence (Q86SM8 whole entry): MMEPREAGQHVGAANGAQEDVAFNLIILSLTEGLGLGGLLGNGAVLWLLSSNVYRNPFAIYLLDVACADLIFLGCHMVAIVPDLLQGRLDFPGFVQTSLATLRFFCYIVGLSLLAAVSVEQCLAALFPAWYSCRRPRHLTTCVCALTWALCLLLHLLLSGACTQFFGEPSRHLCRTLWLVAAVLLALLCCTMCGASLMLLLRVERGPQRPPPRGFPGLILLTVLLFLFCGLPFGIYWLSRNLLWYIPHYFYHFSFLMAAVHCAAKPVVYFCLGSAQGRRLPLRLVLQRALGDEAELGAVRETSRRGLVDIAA
Procedure, shortened: as §1

MRGPRF = biological target: T21, MRGPRF (Homo sapiens, UniProt Q96AM1)
T21 construct: purchased PRESTO-Tango GPCR kit (Roth lab / Addgene)
Procedure, shortened: as §1

MRGPRX3 = biological target: T22, MRGPRX3 (Homo sapiens, UniProt Q96LB0)
T22 construct: purchased PRESTO-Tango GPCR kit (Roth lab / Addgene)
T22 sequence (Q96LB0 whole entry): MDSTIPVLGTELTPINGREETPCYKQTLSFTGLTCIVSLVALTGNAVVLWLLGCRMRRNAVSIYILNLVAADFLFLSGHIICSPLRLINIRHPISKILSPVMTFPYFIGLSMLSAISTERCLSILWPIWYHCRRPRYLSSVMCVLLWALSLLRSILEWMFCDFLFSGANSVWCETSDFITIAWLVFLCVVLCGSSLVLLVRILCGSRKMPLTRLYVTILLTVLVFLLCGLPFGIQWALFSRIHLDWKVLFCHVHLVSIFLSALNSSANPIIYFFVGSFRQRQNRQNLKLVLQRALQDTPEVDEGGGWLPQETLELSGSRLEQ
Procedure, shortened: as §1

OXGR1 = biological target: T23, OXGR1 (Homo sapiens, UniProt Q96P68)
T23 construct: purchased PRESTO-Tango GPCR kit (Roth lab / Addgene)
Procedure, shortened: as §1

OXTR = biological target: T24, OXTR (Homo sapiens, UniProt P30559)
T24 construct: purchased PRESTO-Tango GPCR kit (Roth lab / Addgene)
Procedure, shortened: as §1

P2RY1 = biological target: T25, P2RY1 (Homo sapiens, UniProt P47900)
T25 construct: purchased PRESTO-Tango GPCR kit (Roth lab / Addgene)
T25 sequence (P47900 whole entry): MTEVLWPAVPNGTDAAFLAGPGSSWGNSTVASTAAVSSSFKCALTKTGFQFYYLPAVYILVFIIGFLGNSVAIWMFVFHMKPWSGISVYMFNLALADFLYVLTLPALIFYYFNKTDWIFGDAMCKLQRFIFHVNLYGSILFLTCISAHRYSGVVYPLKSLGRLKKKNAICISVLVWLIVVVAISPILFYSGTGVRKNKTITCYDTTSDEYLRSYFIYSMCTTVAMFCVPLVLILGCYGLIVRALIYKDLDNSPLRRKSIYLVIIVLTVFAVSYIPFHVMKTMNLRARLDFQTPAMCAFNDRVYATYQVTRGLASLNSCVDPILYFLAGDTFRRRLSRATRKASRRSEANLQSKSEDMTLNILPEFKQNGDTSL
Procedure, shortened: as §1

P2RY11 = biological target: T26, P2RY11 (Homo sapiens, UniProt Q96G91)
T26 construct: purchased PRESTO-Tango GPCR kit (Roth lab / Addgene)
Procedure, shortened: as §1

P2RY14 = biological target: T27, P2RY14 (Homo sapiens, UniProt Q15391)
T27 construct: purchased PRESTO-Tango GPCR kit (Roth lab / Addgene)
T27 sequence (Q15391 whole entry, one chain of several): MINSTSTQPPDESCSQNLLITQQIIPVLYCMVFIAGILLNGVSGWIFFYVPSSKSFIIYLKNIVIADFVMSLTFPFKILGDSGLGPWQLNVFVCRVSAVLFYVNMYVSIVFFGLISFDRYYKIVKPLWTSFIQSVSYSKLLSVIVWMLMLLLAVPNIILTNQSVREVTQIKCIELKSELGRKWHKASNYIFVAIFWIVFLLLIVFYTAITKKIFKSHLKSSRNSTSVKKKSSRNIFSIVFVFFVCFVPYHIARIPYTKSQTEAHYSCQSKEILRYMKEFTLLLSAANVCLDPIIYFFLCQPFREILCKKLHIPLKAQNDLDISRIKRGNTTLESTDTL
Procedure, shortened: as §1

P2RY4 = biological target: T28, P2RY4 (Homo sapiens, UniProt P51582)
T28 construct: purchased PRESTO-Tango GPCR kit (Roth lab / Addgene)
T28 sequence (P51582 whole entry): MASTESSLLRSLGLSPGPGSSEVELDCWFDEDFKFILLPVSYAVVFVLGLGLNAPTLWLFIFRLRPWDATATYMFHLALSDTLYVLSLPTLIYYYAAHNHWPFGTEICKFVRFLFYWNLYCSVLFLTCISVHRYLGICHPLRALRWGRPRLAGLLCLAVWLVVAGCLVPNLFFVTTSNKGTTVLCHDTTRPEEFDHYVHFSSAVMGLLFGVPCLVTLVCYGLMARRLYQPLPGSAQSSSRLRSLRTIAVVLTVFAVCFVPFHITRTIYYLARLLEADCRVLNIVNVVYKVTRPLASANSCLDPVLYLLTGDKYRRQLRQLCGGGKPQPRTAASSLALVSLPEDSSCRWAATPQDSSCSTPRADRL
Procedure, shortened: as §1

PK2 = biological target: T29, PK2 (Homo sapiens, UniProt Q8NFJ6)
T29 construct: purchased PRESTO-Tango GPCR kit (Roth lab / Addgene)
T29 sequence (Q8NFJ6 whole entry): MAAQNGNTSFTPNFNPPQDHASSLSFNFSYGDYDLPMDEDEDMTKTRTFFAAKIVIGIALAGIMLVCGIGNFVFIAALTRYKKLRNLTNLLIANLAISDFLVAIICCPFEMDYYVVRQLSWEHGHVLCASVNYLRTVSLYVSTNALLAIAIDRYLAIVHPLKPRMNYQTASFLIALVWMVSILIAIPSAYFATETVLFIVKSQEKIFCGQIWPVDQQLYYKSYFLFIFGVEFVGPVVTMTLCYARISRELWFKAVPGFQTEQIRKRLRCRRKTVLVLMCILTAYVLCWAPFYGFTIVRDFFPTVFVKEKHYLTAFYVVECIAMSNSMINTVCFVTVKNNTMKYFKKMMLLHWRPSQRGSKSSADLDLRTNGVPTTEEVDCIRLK
Procedure, shortened: as §1

PRRP = biological target: T30, PRRP (Homo sapiens, UniProt P49683)
T30 construct: purchased PRESTO-Tango GPCR kit (Roth lab / Addgene)
Procedure, shortened: as §1

PTGFR = biological target: T31, PTGFR (Homo sapiens, UniProt P43088)
T31 construct: purchased PRESTO-Tango GPCR kit (Roth lab / Addgene)
T31 sequence (P43088 whole entry): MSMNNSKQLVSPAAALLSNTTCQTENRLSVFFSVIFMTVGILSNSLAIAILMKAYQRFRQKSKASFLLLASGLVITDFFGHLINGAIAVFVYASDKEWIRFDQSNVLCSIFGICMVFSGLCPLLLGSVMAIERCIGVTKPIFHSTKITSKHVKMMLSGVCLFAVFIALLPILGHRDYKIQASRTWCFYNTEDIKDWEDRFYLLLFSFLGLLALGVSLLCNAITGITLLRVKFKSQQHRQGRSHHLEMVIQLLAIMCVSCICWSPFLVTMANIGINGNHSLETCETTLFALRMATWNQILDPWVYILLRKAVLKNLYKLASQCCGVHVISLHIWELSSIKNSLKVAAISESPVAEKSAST
Procedure, shortened: as §1

RXFP3 = biological target: T32, RXFP3 (Homo sapiens, UniProt Q9NSD7)
T32 construct: purchased PRESTO-Tango GPCR kit (Roth lab / Addgene)
Procedure, shortened: as §1

SSTR4 = biological target: T33, SSTR4 (Homo sapiens, UniProt P31391)
T33 construct: purchased PRESTO-Tango GPCR kit (Roth lab / Addgene)
Procedure, shortened: as §1

TAAR2 = biological target: T34, TAAR2 (Homo sapiens, UniProt Q9P1P5)
T34 construct: purchased PRESTO-Tango GPCR kit (Roth lab / Addgene)
Procedure, shortened: as §1

TBXA2R = biological target: T35, TBXA2R (Homo sapiens, UniProt P21731)
T35 construct: purchased PRESTO-Tango GPCR kit (Roth lab / Addgene)
Procedure, shortened: as §1

VIPR1 = biological target: T36, VIPR1 (Homo sapiens, UniProt P32241)
T36 construct: purchased PRESTO-Tango GPCR kit (Roth lab / Addgene)
Procedure, shortened: as §1

T1 sequence (P0DMS8 whole entry): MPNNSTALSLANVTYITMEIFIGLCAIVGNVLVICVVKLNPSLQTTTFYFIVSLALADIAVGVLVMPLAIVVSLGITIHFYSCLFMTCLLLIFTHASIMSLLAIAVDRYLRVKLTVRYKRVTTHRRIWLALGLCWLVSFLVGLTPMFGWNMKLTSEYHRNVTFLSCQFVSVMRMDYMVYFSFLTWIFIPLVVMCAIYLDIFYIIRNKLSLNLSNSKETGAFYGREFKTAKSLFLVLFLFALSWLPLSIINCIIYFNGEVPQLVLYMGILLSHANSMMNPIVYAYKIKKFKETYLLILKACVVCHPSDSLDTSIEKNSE

Row | Compound | GPCR activation (heatmap value) (ADORA3) | GPCR activation (heatmap value) (ADRA2B) | GPCR activation (heatmap value) (ADRB2) | GPCR activation (heatmap value) (C3AR1) | GPCR activation (heatmap value) (C5A) | GPCR activation (heatmap value) (CCR3) | GPCR activation (heatmap value) (CCRL2) | GPCR activation (heatmap value) (CHRM1) | GPCR activation (heatmap value) (CHRM4) | GPCR activation (heatmap value) (F2R) | GPCR activation (heatmap value) (GPR101) | GPCR activation (heatmap value) (GPR12) | GPCR activation (heatmap value) (GPR142) | GPCR activation (heatmap value) (GPR22) | GPCR activation (heatmap value) (GPR39) | GPCR activation (heatmap value) (GPR52) | GPCR activation (heatmap value) (GPR62) | GPCR activation (heatmap value) (HTR2C) | GPCR activation (heatmap value) (MC5R) | GPCR activation (heatmap value) (MRGPRE) | also measured
1 | CC(C)Cc1ncc(CCCCNC(=N)N)[nH]c1=O [3-Homo] | -0.404 | -0.5041 | -0.1039 | -0.001199 | 0.3516 | -0.05608 | 0.009703 | -1.546 | 0.08984 | -0.4507 | -0.2435 | 0.07278 | -0.286 | -1.099 | 0.5643 | 0.2473 | 0.1938 | 0.3471 | 0.4155 | 0.8539 | GPCR activation (heatmap value) (MRGPRF): 0.9987; GPCR activation (heatmap value) (MRGPRX3): -1.005; GPCR activation (heatmap value) (OXGR1): 0.2343; GPCR activation (heatmap value) (OXTR): 0.4883; GPCR activation (heatmap value) (P2RY1): 0.7917; GPCR activation (heatmap value) (P2RY11): 0.1373; GPCR activation (heatmap value) (P2RY14): 0.07991; GPCR activation (heatmap value) (P2RY4): 0.7408; GPCR activation (heatmap value) (PK2): -0.9094; GPCR activation (heatmap value) (PRRP): 1.001; GPCR activation (heatmap value) (PTGFR): 0.3992; GPCR activation (heatmap value) (RXFP3): 0.07695; GPCR activation (heatmap value) (SSTR4): 0.2411; GPCR activation (heatmap value) (TAAR2): 0.3187; GPCR activation (heatmap value) (TBXA2R): 0.3386; GPCR activation (heatmap value) (VIPR1): -0.06399
2 | CC(C)Cc1ncc(CCCNC(=N)N)[nH]c1=O [compound 3] | -0.3342 | 2.203 | 0.6209 | -0.2058 | 0.1076 | -0.6954 | 0.3717 | -1.184 | 0.4059 | -0.02389 | 0.4147 | 0.5588 | -0.6317 | -1.5748 | 0.8238 | 0.9036 | 1.991 | 0.7228 | -0.2243 | 1.264 | GPCR activation (heatmap value) (MRGPRF): 0.6496; GPCR activation (heatmap value) (MRGPRX3): -1.319; GPCR activation (heatmap value) (OXGR1): -0.2265; GPCR activation (heatmap value) (OXTR): 0.1075; GPCR activation (heatmap value) (P2RY1): 0.6628; GPCR activation (heatmap value) (P2RY11): -0.4085; GPCR activation (heatmap value) (P2RY14): 0.6085; GPCR activation (heatmap value) (P2RY4): 0.7544; GPCR activation (heatmap value) (PK2): -0.4477; GPCR activation (heatmap value) (PRRP): 1.542; GPCR activation (heatmap value) (PTGFR): 0.901; GPCR activation (heatmap value) (RXFP3): -0.5079; GPCR activation (heatmap value) (SSTR4): -0.01818; GPCR activation (heatmap value) (TAAR2): 0.1553; GPCR activation (heatmap value) (TBXA2R): 0.04774; GPCR activation (heatmap value) (VIPR1): 0.4975
